In the NIST ThermoML archive (doi:10.1016/j.jct.2015.08.031):

Experiment: molar heat capacity at constant pressure
Details: 101.33 kPa, Crystal, relaxation calorimetry

[Al+3].[Al+3].[O-2].[O-2].[O-2] [aluminum oxide (Al2O3)]
Details | molar heat capacity at constant pressure [J/K/mol]
1.93 K | 7.666e-05
2.15 K | 9.655e-05
2.39 K | 0.0001341
2.65 K | 0.0001785
2.95 K | 0.0002464
3.28 K | 0.0003342
3.64 K | 0.0004613
4.04 K | 0.0006149
4.49 K | 0.0008379
4.98 K | 0.001136
5.523 K | 0.001541
6.13 K | 0.00216
6.8 K | 0.002926
7.54 K | 0.004006
8.36 K | 0.005388
9.27 K | 0.007325
10.28 K | 0.009979
11.37 K | 0.0134
12.61 K | 0.01843
13.99 K | 0.02532
15.52 K | 0.03431
17.22 K | 0.04685
19.12 K | 0.06451
21.23 K | 0.08864
23.58 K | 0.1229
26.17 K | 0.1719
29.08 K | 0.2396
32.22 K | 0.3344
35.73 K | 0.4743
39.62 K | 0.6761
43.94 K | 0.9644
48.73 K | 1.379
54.06 K | 1.968
59.98 K | 2.789
66.54 K | 3.91
73.85 K | 5.425
81.95 K | 7.444
90.93 K | 9.991
100.91 K | 13.15
111.18 K | 16.79
121.13 K | 20.54
131.17 K | 24.48
141.28 K | 28.54
151.4 K | 32.54
161.47 K | 36.62
171.56 K | 40.51
181.6 K | 44.37
191.67 K | 48.13
201.78 K | 51.63
211.87 K | 55.13
221.94 K | 58.53
232 K | 61.73
241.98 K | 64.63
252.05 K | 67.6
262.17 K | 70.28
272.22 K | 72.77
282.18 K | 75.28
292.31 K | 77.45
297.27 K | 78.3
302.27 K | 79.34
302.29 K | 79.63
307.31 K | 80.41
312.34 K | 81.4
317.3 K | 82.41
322.32 K | 83.31
327.42 K | 84.26
332.46 K | 85.09
337.41 K | 85.84
342.44 K | 86.73
347.58 K | 87.72
352.67 K | 88.65
357.7 K | 89.47
362.73 K | 90.24
367.75 K | 90.97
372.77 K | 91.84
377.77 K | 92.8
382.79 K | 93.27
387.76 K | 94.14
392.76 K | 95.04
397.77 K | 95.81

[Cu] [copper]
Details | molar heat capacity at constant pressure [J/K/mol]
1.93 K | 0.001713
2.15 K | 0.002021
2.39 K | 0.002319
2.65 K | 0.002809
2.95 K | 0.003326
3.28 K | 0.003967
3.64 K | 0.004911
4.04 K | 0.005973
4.48 K | 0.007493
4.97 K | 0.009444
5.51 K | 0.01204
6.11 K | 0.01543
6.78 K | 0.0199
7.52 K | 0.02598
8.33 K | 0.03421
9.24 K | 0.04517
10.25 K | 0.06013
11.34 K | 0.08043
12.58 K | 0.1091
13.96 K | 0.149
15.48 K | 0.2052
17.18 K | 0.2844
19.06 K | 0.3981
21.16 K | 0.5588
23.49 K | 0.7857
26.06 K | 1.094
28.95 K | 1.514
32.07 K | 2.062
35.61 K | 2.768
39.52 K | 3.635
43.85 K | 4.662
48.66 K | 5.846
54.01 K | 7.178
59.94 K | 8.631
66.51 K | 10.16
73.83 K | 11.68
81.93 K | 13.27
90.94 K | 14.71
100.89 K | 16.04
111.02 K | 17.3
121.12 K | 18.35
131.2 K | 19.24
141.26 K | 19.93
151.41 K | 20.52
161.51 K | 21.05
171.6 K | 21.5
181.69 K | 21.94
191.78 K | 22.25
201.87 K | 22.55
212 K | 22.82
222.11 K | 23.11
232.19 K | 23.37
242.21 K | 23.57
252.34 K | 23.79
262.41 K | 23.94
272.42 K | 24.1
282.6 K | 24.3
292.63 K | 24.41
297.94 K | 24.49
302.69 K | 24.51
302.72 K | 24.54
307.82 K | 24.55
312.89 K | 24.59
317.83 K | 24.7
322.91 K | 24.68
328.03 K | 24.79
333.05 K | 24.87
338.06 K | 24.81
343.13 K | 24.9
348.29 K | 25.01
353.34 K | 25.13
358.42 K | 25.09
363.5 K | 25.13
368.53 K | 25.23
373.56 K | 25.3
378.59 K | 25.4
383.61 K | 25.45
388.61 K | 25.48
393.64 K | 25.58
398.65 K | 25.68

O=C(O)c1ccccc1 [benzoic acid]
Details | molar heat capacity at constant pressure [J/K/mol]
1.93 K | 0.01333
2.15 K | 0.01845
2.39 K | 0.0255
2.66 K | 0.03397
2.96 K | 0.04707
3.29 K | 0.06572
3.65 K | 0.08963
4.05 K | 0.1233
4.49 K | 0.1714
4.99 K | 0.2363
5.54 K | 0.3302
6.14 K | 0.4631
6.81 K | 0.6487
7.56 K | 0.9052
8.38 K | 1.253
9.29 K | 1.714
10.26 K | 2.266
11.36 K | 3.021
12.61 K | 3.971
13.99 K | 5.144
15.52 K | 6.537
17.23 K | 8.219
19.12 K | 10.17
21.21 K | 12.39
23.54 K | 14.97
26.1 K | 17.79
28.96 K | 20.88
32.16 K | 24.14
35.67 K | 27.61
39.58 K | 31.21
43.9 K | 34.8
48.73 K | 38.39
54.07 K | 42.02
60 K | 45.71
66.57 K | 49.33
73.89 K | 52.81
82 K | 56.69
91.01 K | 60.28
100.97 K | 63.46
111.11 K | 67.66
121.2 K | 71.28
131.23 K | 75.08
141.33 K | 78.93
151.47 K | 82.66
161.56 K | 86.28
171.65 K | 90.21
181.75 K | 94.38
191.83 K | 98.14
201.92 K | 101.91
212.02 K | 106.35
222.12 K | 110.99
232.21 K | 115.4
242.21 K | 119.97
252.4 K | 124.67
262.46 K | 128.8
272.51 K | 133.51
282.55 K | 138.2
292.7 K | 141.62
302.71 K | 144.34
